Read-outs that look alike come from different tables or passages of the source.
Key:
[1] = in vivo, plasma renal clearance, clinical data; cited from earlier work
[2] = test system: OAT1/3; assay: Bottom-up IVIVE of CLint,sec, CLsec and CLr, relative activity factor (RAF) approach; set-up: species or system human
Source text: (§1) The relative expression and relative activity factor (REF and RAF) are unitless scalers that account for in vivo versus in vitro differences in the abundance and activity of OAT1/3 and are used for IVIVE of in vitro CLint,u,active. REF was derived from the OAT1/3 expression ratio between the in vivo human kidney cortex to the in vitro ciPTEC-OAT1/3, as shown in eq 7: [drawing 8] 7 Absolute abundance of OAT1 and OAT3 in the human kidney cortex was previously quantified by our group using the filter-aided sample preparation protocol and global proteomic analysis.[44]

[3] = Observed in vivo (clinical) renal, secretion and intrinsic secretion clearance; conditions: in vivo
[4] = molecular target: T1, OAT3 (Homo sapiens, UniProt Q8TCC7); assay: OAT3 uptake study in ciPTEC-OAT3; conditions: for OAT3 substrate status (uptake in ciPTEC-OAT3): control vs probenecid 300 μM; for Vb,max OAT3, Active and Passive Uptake: eq 4 fitted to CLint,u; for Vb,max OAT3, Active and Passive Uptake / Vb,max OAT3, Active Uptake Only: mean ± S.D.; for Vb,max OAT3, Active Uptake Only: eq 4 fitted to CLint,u,active
T1 sequence (Q8TCC7 1-542): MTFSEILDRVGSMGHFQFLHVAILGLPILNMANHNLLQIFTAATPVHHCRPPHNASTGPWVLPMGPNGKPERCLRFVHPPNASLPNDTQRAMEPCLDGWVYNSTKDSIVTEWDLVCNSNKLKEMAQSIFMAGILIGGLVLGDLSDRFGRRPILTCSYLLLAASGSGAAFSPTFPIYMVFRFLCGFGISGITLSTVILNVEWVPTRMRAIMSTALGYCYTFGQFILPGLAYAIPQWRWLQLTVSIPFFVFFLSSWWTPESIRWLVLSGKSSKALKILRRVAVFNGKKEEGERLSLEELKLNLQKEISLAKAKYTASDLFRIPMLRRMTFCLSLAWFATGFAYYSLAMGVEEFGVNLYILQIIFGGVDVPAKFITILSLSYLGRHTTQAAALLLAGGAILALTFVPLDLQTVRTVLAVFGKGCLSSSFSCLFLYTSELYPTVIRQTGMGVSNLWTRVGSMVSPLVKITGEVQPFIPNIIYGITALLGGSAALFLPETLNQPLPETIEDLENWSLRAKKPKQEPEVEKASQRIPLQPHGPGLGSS

[5] = molecular target: T2, OAT1 (Homo sapiens, UniProt Q4U2R8); assay: OAT1 uptake study in ciPTEC-OAT1; conditions: for ratio of CLint,u,active (R) (HSA/control) 1%: OAT1, 1% HSA vs control; for ratio of CLint,u,active (R) (HSA/control) 1% / ratio of CLint,u,active (R) (HSA/control) 4%: unbound concentration kept constant; for ratio of CLint,u,active (R) (HSA/control) 4%: OAT1, 4% HSA vs control; for OAT1 substrate status (uptake in ciPTEC-OAT1): control vs probenecid 300 μM; for Vb,max OAT1, Active and Passive Uptake: eq 4 fitted to CLint,u; for Vb,max OAT1, Active and Passive Uptake / Vb,max OAT1, Active Uptake Only: mean ± S.D.; for Vb,max OAT1, Active Uptake Only: eq 4 fitted to CLint,u,active, Kd,m fixed from OAT3 data; for Change to passive diffusion clearance upon inclusion of 1% HSA: probenecid condition, preliminary experiments
T2 sequence (Q4U2R8 1-563): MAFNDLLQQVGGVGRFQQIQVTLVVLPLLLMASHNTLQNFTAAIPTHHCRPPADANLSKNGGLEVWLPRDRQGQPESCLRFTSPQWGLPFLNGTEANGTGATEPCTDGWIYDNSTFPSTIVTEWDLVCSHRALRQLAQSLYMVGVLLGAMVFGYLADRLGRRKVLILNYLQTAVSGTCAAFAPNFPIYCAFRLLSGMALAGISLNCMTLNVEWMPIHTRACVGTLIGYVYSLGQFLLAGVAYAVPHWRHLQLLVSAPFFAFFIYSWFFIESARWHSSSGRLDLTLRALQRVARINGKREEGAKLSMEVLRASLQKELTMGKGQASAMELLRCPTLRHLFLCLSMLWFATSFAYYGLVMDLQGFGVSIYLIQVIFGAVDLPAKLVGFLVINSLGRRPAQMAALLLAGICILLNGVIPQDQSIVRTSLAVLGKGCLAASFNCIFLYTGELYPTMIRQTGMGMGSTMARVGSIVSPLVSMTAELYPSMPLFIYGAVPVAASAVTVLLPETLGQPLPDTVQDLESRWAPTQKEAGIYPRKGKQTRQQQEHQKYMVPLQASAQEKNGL

[6] = molecular target: human serum albumin (Homo sapiens, UniProt P02768); assay: Extent of albumin binding: high throughput equilibrium dialysis (fu,inc, Kd); assay type: in vitro ADME; conditions: for Kd: estimated using eq 3 from measured fu,inc; for fraction unbound at 6 h: human
Description: Briefly, cellulose membranes with MWCO of 12–14 kDa were submerged in distilled water for 1 h, followed by 20% ethanol/distilled water for at least 20 min. Prior to the start of the experiment, cellulose membranes were rinsed in distilled water and submerged in blank DPBS for 15 min. The HTDialysis device was assembled according to the manufacturer’s instructions (https://www.htdialysis.com). Blank DPBS was first added to the receiver side of the dialysis membranes, followed by DPBS spiked with HSA and the OAT1/3 substrate to the donor side. Each HSA concentration was tested in triplicates. The HTDialysis device was sealed with an adhesive sealing film and incubated in a water bath at 37 °C for 6 h shaken at 150 rpm. Once the assay was completed, aliquots from both receiver and donor wells were transferred to a 96-well plate and stored at −80 °C until analysis. DPBS spiked with the OAT1/3 substrate from both before and after incubation was stored to assess the recovery and stability of the samples. To prepare the sample for analysis, donor and receiver samples were matrix-matched and quenched with ice-cold acetonitrile containing an internal standard (0.5 μM gemfibrozil or 0.05 μM buspirone).

[7] = test system: OAT1/3; assay: Bottom-up IVIVE of CLint,sec, CLsec and CLr, relative expression factor (REF) approach; set-up: species or system human
Source text: as §1

[8] = human, in vivo
[9] = 1% human serum albumin in DPBS, 1% HSA, equilibrium dialysis 37 °C 6 h, mean ± SD, read-out: fu,inc (1%)
[10] = 4% HSA in DPBS, 4% HSA, equilibrium dialysis 37 °C 6 h, mean ± SD, read-out: fu,inc (4%)

human serum albumin, sequence (P02768 25-609): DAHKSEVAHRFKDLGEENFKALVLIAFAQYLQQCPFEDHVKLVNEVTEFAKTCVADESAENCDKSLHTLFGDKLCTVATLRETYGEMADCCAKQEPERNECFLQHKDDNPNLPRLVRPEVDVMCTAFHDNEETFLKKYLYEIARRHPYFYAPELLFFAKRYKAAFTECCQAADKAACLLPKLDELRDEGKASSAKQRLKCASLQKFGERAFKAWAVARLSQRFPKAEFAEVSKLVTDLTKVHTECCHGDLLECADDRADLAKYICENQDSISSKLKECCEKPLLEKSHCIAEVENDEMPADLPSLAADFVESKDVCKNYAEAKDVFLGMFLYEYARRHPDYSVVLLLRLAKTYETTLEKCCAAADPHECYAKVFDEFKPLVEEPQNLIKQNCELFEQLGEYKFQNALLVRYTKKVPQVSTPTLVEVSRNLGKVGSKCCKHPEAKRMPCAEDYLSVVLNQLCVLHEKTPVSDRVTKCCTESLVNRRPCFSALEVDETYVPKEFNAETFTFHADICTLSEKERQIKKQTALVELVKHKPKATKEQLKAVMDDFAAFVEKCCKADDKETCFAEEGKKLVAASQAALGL

## Cc1ncc(CO)c(C(=O)O)c1O [4-pyridoxic acid]
[1]
  CLr Observed: 15.6 L/h
[2]
  CLint,sec Predicted 0% HSA: 8.79 L/h
  CLint,sec Predicted 1% HSA: 22.1 L/h
  CLint,sec Predicted 4% HSA: 32.6 L/h
  CLsec Predicted 0% HSA: 0.74 L/h
  CLsec Predicted 1% HSA: 1.79 L/h
  CLsec Predicted 4% HSA: 2.57 L/h
[3]; back-calculated from clinical data
  CLint,sec Observed: 340 L/h
[3]; plasma secretion clearance
  CLsec Observed: 14.8 L/h
[4]; OAT3, 1% HSA vs control
  ratio of CLint,u,active (R) (HSA/control) 1%: 2.64 ± 1.12
[4]; OAT3, 4% HSA vs control
  ratio of CLint,u,active (R) (HSA/control) 4%: 3.85 ± 1.30
[4]
  OAT3 substrate status (uptake in ciPTEC-OAT3): dual OAT1/3 substrates
  Vb,max OAT3, Active and Passive Uptake: 53.1 ± 17.1 pmol/min/mg
  Vb,max OAT3, Active Uptake Only: 51.9 ± 15.8 pmol/min/mg
[5]; 0.5% HSA, total concentration constant at 10 µM, preliminary
  fold increase in OAT1 CLint,u,active versus control: 1.50 fold
[5]; 0.5% HSA, unbound concentration constant at 1.0 µM
  fold increase in OAT1 CLint,u,active versus control: 1.50 fold
[5]; 1.0% HSA, total concentration constant at 10 µM, preliminary
  fold increase in OAT1 CLint,u,active versus control: 1.82 fold
[5]; 2.0% HSA, total concentration constant at 10 µM, preliminary
  fold increase in OAT1 CLint,u,active versus control: 0.93 fold
[5]; 2.0% HSA, unbound concentration constant at 1.0 µM
  fold increase in OAT1 CLint,u,active versus control: 1.79 fold
[5]; 4.0% HSA, total concentration constant at 10 µM, preliminary
  fold increase in OAT1 CLint,u,active versus control: 2.2 fold
[5]
  ratio of CLint,u,active (R) (HSA/control) 1%: 1.92 ± 0.65
  ratio of CLint,u,active (R) (HSA/control) 4%: 3.46 ± 0.47
  OAT1 substrate status (uptake in ciPTEC-OAT1): dual OAT1/3 substrates
  Vb,max OAT1, Active and Passive Uptake: 222 ± 24.6 pmol/min/mg
  Vb,max OAT1, Active Uptake Only: 213 ± 24 pmol/min/mg
  Change to passive diffusion clearance upon inclusion of 1% HSA: minimal change
[5]; listed as PDA
  ratio of CLint,u,active (R) (HSA/control) 1%: 1.92
  ratio of CLint,u,active (R) (HSA/control) 4%: 3.46
  Change to passive diffusion clearance upon inclusion of 1% HSA: minimal changes
[5]; ciPTEC-OAT1, 300 µM probenecid
  unbound passive diffusion clearance (CLpd): 0.031 µL/min/mg
[5]; ciPTEC-OAT1, 1.0% HSA + 300 µM probenecid
  unbound passive diffusion clearance (CLpd): 0.039 µL/min/mg
[6]; mean ± SD
  Kd: 56.4 ± 2.5 µM
[6]; 0.5% HSA in DPBS, 0.5% HSA, mean ± S.D., read-out: fu,inc
  fraction unbound at 6 h: 0.4 ± 0.042
[6]; [9]
  fraction unbound at 6 h: 0.298 ± 0.005
[6]; 2% HSA in DPBS, 2% HSA, mean ± S.D., read-out: fu,inc
  fraction unbound at 6 h: 0.163 ± 0.005
[6]; [10]
  fraction unbound at 6 h: 0.079 ± 0.006
[7]; REF approach
  CLint,sec Predicted 0% HSA: 3.46 L/h
  CLint,sec Predicted 1% HSA: 7.85 L/h
  CLint,sec Predicted 4% HSA: 12.6 L/h
  CLsec Predicted 0% HSA: 0.29 L/h
  CLsec Predicted 1% HSA: 0.66 L/h
  CLsec Predicted 4% HSA: 1.05 L/h
[7]; regardless of albumin inclusion and of RAF/REF approach
  Predicted CLr, CLsec and CLint,sec as % of observed: < 20%

## CCCCNc1cc(C(=O)O)cc(S(N)(=O)=O)c1Oc1ccccc1 [bumetanide]
[1]
  CLr Observed: 5.77 L/h
[8]
  CLint,sec Observed: 680 L/h
  CLsec Observed: 5.51 L/h
[4]
  OAT3 substrate status (uptake in ciPTEC-OAT3): dual OAT1/3 substrates
  Vb,max OAT3, Active and Passive Uptake: 492 ± 144 pmol/min/mg
  Vb,max OAT3, Active Uptake Only: 470 ± 132 pmol/min/mg
[5]
  OAT1 substrate status (uptake in ciPTEC-OAT1): dual OAT1/3 substrates
  Vb,max OAT1, Active and Passive Uptake: 467 ± 49.4 pmol/min/mg
  Vb,max OAT1, Active Uptake Only: 447 ± 48 pmol/min/mg
[6]; mean ± SD
  Kd: 21.1 ± 1.4 µM
[6]; [9]
  fraction unbound at 6 h: 0.141 ± 0.012
[6]; [10]
  fraction unbound at 6 h: 0.029 ± 0.003

## NS(=O)(=O)c1cc(C(=O)O)c(NCc2ccco2)cc1Cl [furosemide]
[8]
  CLsec Observed: 5.07 L/h
[4]
  Vb,max OAT3, Active and Passive Uptake: 478 ± 139 pmol/min/mg
  Vb,max OAT3, Active Uptake Only: 453 ± 127 pmol/min/mg
